The IC50 is the concentration at which inhibition is half-maximal.

We go through 4 molecules from article PMC12409883 (Journal of Medicinal Chemistry, 2025).

The target of one series is RPE65 (Bos taurus, UniProt Q28175). The series can be described thus: In vitro RPE65 activity assay. Particulars: for IC50: IC50 toward RPE65, bovine RPE microsomes.
Series [1] deals with visual chromophore regeneration in BALB/cJ mice. The experiment in a line: Extent and duration of effects on visual chromophore recovery after photobleach. Particulars: 10 mg/kg single IP, photobleach 30 min after dose, 2 h dark recovery.
A short description of series [2]: Shelf life of ester-based VCMs. Particulars: Figure S1. It is filed as physicochemical.
Another series concerns porcine liver esterase. The experiment in a line: In vitro esterase susceptibility assay. Particulars: for initial rate of VCM loss: 37 °C, followed for 60 min.
For another series, the system named is BALBc/J mice. The series can be described thus: In vivo scotopic ERG 2 h after photobleach, oral gavage dosing. The arrangement: species or system mouse. Particulars: 10 mg/kg oral gavage, photobleach after 30 min, 2 h in the dark.
The subject of series [3] is BALB/cJ mice. The series can be described thus: Light-induced retinal damage in BALB/cJ mice: SLO and OCT imaging. Format: in vivo, mouse.
The subject of series [4] is BALB/cJ mice. The experiment in a line: Light-induced retinal damage in BALB/cJ mice: histology, ONL nuclei counts. Particulars: 10 mg/kg single IP, 15,000 lx for 8 h, p < 0.0001.
In series [5] the test system is Abca4–/–Rdh8–/– mice. The series can be described thus: Photic retinal damage in Abca4–/–Rdh8–/– mice. It is filed as in vivo, mouse.
Series [6] has as its system Abca4–/–Rdh8–/– mice. The experiment in a line: Photic retinal damage in Abca4–/–Rdh8–/– mice: scotopic. It is filed as in vivo, mouse. Particulars: 1 week after light damage.
Series [7] relates to Abca4–/–Rdh8–/– mice. The experiment in a line: Photic retinal damage in Abca4–/–Rdh8–/– mice: photopic ERG. Format: in vivo, mouse. Particulars: IP and oral administration, 1 week after light damage.
The mark [8] stands for this setting: 10 mg/kg single IP, 15,000 lx for 8 h, assessed after 7 days.

RPE65, sequence (Q28175 whole entry): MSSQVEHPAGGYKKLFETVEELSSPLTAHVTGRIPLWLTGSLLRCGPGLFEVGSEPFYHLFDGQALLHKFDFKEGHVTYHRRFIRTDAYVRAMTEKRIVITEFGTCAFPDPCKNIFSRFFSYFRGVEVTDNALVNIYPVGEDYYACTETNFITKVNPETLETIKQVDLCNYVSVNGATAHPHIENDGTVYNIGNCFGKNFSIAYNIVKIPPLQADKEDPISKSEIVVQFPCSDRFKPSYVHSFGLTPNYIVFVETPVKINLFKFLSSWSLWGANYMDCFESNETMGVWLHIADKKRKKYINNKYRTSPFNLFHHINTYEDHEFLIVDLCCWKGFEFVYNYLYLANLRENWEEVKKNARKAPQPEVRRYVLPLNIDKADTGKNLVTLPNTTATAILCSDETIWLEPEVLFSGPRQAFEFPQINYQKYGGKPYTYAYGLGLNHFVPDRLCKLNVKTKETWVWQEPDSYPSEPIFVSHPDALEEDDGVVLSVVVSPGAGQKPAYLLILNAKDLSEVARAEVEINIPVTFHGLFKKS

Take `NCCC(O)c1cccc(O)c1` (stereo not shown) [Compound 4, 3-(3-Amino-1-hydroxypropyl)phenol]: the “RPE65 inhibition in vitro” value on RPE65 (bovine RPE microsomes) is “did not significantly inhibit RPE65”. The “ocular retinoid pattern (atREs and 11cRAL) after photobleach” value (“ocular retinoid pattern” for short) in series [1] is “led to the same pattern as vehicle treatment”.
Turning to `NCCC(O)c1cccc(OC(=O)C2CCCCC2)c1.O=CO` (stereo not shown) [Compound 5, 3-(3-Amino-1-hydroxypropyl)phenyl cyclohexanecarboxylate formate], in series [2], the “stability to nonenzymatic aminolysis” value is “substantially less stable compared to 6 and 7”. Further, the “initial rate of VCM loss” value with porcine liver esterase is 5.611 % compound/min. The IC50 on RPE65 stood at 0.164 ± 0.027 µM. Besides, the “ocular retinoid pattern” value in series [1] was “led to the same pattern as vehicle treatment”.
On to `CCC(CC)C(=O)Oc1cccc(C(O)CCN)c1.O=CO` (stereo not shown) [Compound 6, 3-(3-Amino-1-hydroxypropyl)phenyl 2-ethylbutanoate formate], for which, in the series on BALBc/J mice, the “scotopic ERG a-wave after oral dosing” value is “suppressed significantly the scotopic ERG a-wave” and the “scotopic ERG b-wave after oral dosing” value was “only 7 suppressed also the b-wave amplitude”. Also, in the series on BALB/cJ mice [3] (setting [8]), the “OCT: ONL thickness” value was “preserved the thickness of the ONL” and the “SLO retinal autofluorescent puncta” value is given as “rare autofluorescent puncta”. In addition, the “efficacy of a single systemic administration in the prevention of photic retinal damage” value in the series with BALB/cJ mice [3] (10 mg/kg single IP, albino BALB/cJ mice) is “equal to that of emixustat”. Besides, in the series with porcine liver esterase, the “slower initial rate of hydrolysis compared with compound 5” value is approximately 4 fold and the “initial rate of VCM loss” value is listed as 1.512 % compound/min. Also, the IC50 on RPE65 was determined as 0.069 ± 0.015 µM. In addition, in the series on BALB/cJ mice [4], the “Spider plot of ONL thickness from H&E sections, ANOVA” value is reported as “significant effect”. Further, in series [1], the “ocular retinoid pattern” value is reported as “reproduced the retinoid pattern observed after emixustat treatment”.
Regarding `CCCC(CCC)C(=O)Oc1cccc(C(O)CCN)c1.O=CO` (stereo not shown) [Compound 7, 3-(3-Amino-1-hydroxypropyl)phenyl 2-propylpentanoate formate], the “scotopic ERG a-wave after oral dosing” value in the series with BALBc/J mice is on record as “suppressed significantly the scotopic ERG a-wave”. Moreover, the “OCT: ONL, oral” value in the series with Abca4–/–Rdh8–/– mice [5] (oral 10, 20, 50 mg/kg, 10,000 lx for 30 min, assessed after 1 week) is reported as “dose-dependent preservation of the ONL layer”. Also, in the series on Abca4–/–Rdh8–/– mice [5] (oral 10, 20 and 50 mg/kg, 10,000 lx for 30 min, assessed after 1 week), the “SLO autofluorescent signals, oral” value is “did not afford complete protection”. For the same molecule, the “oral dose from which the effect on ONL thickness was significant” value in the series with Abca4–/–Rdh8–/– mice [5] (oral administration, OCT ONL thickness) is not below 20 mg/kg. For the same molecule, the “OCT: ONL, IP” value in the series on Abca4–/–Rdh8–/– mice [5] (single IP dose, 10,000 lx for 30 min, assessed after 1 week) is “the ONL remained intact”. The “rod ERG responses, IP” value in the series with Abca4–/–Rdh8–/– mice [6] (IP administration) was “had a significant effect in maintaining rod function”. The “rod ERG b-wave amplitudes, oral” value in the series on Abca4–/–Rdh8–/– mice [6] (oral 10, 20, 50 mg/kg) is “dose-dependent preservation of rod ERG b-wave amplitudes”. In addition, the “S-cone and M-cone b-wave amplitudes” value with Abca4–/–Rdh8–/– mice [7] is given as “A similar trend was observed”. Also, in the series with porcine liver esterase, the “slower initial rate of hydrolysis compared with compound 5” value was approximately 13 fold and the “initial rate of VCM loss” value stood at 0.440 % compound/min. Besides, the midpoint of inhibition against RPE65, the IC50, lay at 0.102 ± 0.012 µM. The “ocular retinoid pattern” value in series [1] was “reproduced the retinoid pattern observed after emixustat treatment”.
